pIC50: −log10 of the molar value.
How the values were obtained:
[1] = Photophysical characterization of probes and uncaged forms (relative fluorescence quantum yield, extinction coefficient, brightness); type: physicochemical; conditions: for Brightness: in M⁻¹·cm⁻¹ (unit assumed)
Procedure: The pKa of TEG-TC was determined to be 7.1±0.1 using UV-Vis spectrophotometric measurements. Under the confocal imaging conditions (pH 7.5-8.5 with cell-free assays, pH 7.4 with cells), a substantial population of the 7-hydroxycoumarin should exist in its aryloxide form. The change in coumarin fluorogenicity was assessed upon uncaging the probes from the oxobutylphenyl carbonate by measuring the relative fluorescence quantum yield (ΦFrel) values (Table 2). Coumarin 343 was used as a standard, which has an absolute fluorescence quantum yield ([…]) of 0.63 in ethanol. The ΦFrel values of TEG-TC-ONOO^− (entry 1) and DPPC-TC-ONOO^− (entry 3) were measured as 0.08 and 0.09, respectively. […] The ΦFrel values for TEG-TC (entry 2) and DPPC-TC (entry 4), which were synthesized independently, were measured as 0.66 and 0.64, respectively.
Next, the impact of caging and uncaging of the coumarin or fluorescein moieties on their fluorogenicity was assessed by measuring the relative fluorescence quantum yield (ΦFrel) values (Table 3). Coumarin 343 was used as the standard for measuring ΦFrel of the triazole-coumarin compounds (TEG-TC-H2S, TEG-TC, DPPC-TC-H2S, and DPPC-TC) whereas fluorescein for the triazole-fluorescein compounds (TEG-TF-H2O2, TEG-TF, and DPPC-TF-H2O2, and DPPC-TF). Relative to coumarin 343, whose absolute fluorescence quantum yield (ΦF) is 0.63 in ethanol, ΦFrels of the H2S probes TEG-TC-H2S (entry 1) and DPPC-TC-H2S (entry 3) were determined to be 0.07 and 0.03, respectively.
The pKa of TEG-TC was previously found to be to be 7.1±0.1 using UV-Vis spectrophotometric measurements. Under the fluorescence activation assay conditions that are employed here (Tris 50 mM, pH 7.5), a substantial population of the coumarin moiety is expected to be in its aryloxide anion form. Relative to fluorescein, whose ΦF is 0.79 in ethanol, ΦFrel values of the H2O2 probes TEG-TF-H2O2 (entry 5) and DPPC-TF-H2O2 (entry 7) were determined to be 0.04 and 0.02, respectively.

[2] = system: HeLa and RAW 264.7 cells; test: MTT cell viability assay; type: cell-based; conditions: 8-250 μM, 24-hour period
Procedure: With a feasible liposome preparation and treatment protocol established for live cell imaging, attention was turned to assessing the cytocompatibility of the LNPs, with or without DPPC-TC-ONOO^−, DPPC-TC, and the oxa-spiro[4,5] decenone 6a. A standard 3-(4,5-dimethylthiazol-2-yl)-2,5-diphenyl tetrazolium bromide (MTT) cell viability assay in HeLa and RAW 264.7 cells treated with these molecules (8-250 μM) over a 24-hour period. The dose-response curves provided high IC50 values for each compound: DPPC-TC-ONOO− (≥100 μM), DPPC-TC (≥50 μM), and 6 (≥70 μM).

[3] = system: HeLa cells; test: Confocal imaging and colocalization in live HeLa cells; type: cell-based; conditions: LNPs, no stimulation
Procedure: FIGS. 9A-9E: confocal imaging of lipid environments targeted by ONOO^− in live HeLa cells. Cells were seeded into glass microscope dishes, incubated with LNPs (50 μM) and stained with organelle trackers and/or actin dye prior to imaging. LNPs obtained from a 47.5:47.5:5.0 molar ratio of DOTMA, DOPE, and DPPC-TC-ONOO^−. FIG. 9A: cells treated with LNPs, stimulated with IFN-γ/LPS/PMA. Time coarse images acquired upon PMA treatment. FIG. 9B: cells treated with LNPs and 1400 W. FIG. 9C: cells treated with LNPs, then with 1400 W and IFN-γ/LPS/PMA. FIGS. 9D-9E: quantitative colocalization study of cells treated with LNPs and stimulated with IFN-γ/LPS/PMA. Pearson's correlation coefficient (PCC) was calculated for quantitative assessment. Organelle trackers: ER-Tracker™, MitoTracker™, CellLight™ Golgi-RFP, LysoTracker™. Cell cytoskeleton was assessed with CellMask™ Deep Red Actin Tracking Stain. DPPC-TC channel: 405/475 nm. Scale bars=20 μm (FIGS. 9A-9D) or 5 μm (FIG. 9E). With the utility of DPPC-TC-ONOO^− proven in synthetic protocell membranes, incorporation into live HeLa and RAW 264.7 cells was sought, which are relevant to redox-induced stress and have well-recognized pathways for RNS and ROS production. Lipid nanoparticles (LNPs) (˜100 nm in diameter) was used to deliver DPPC-TC-ONOO− into cells. This method circumvented the limited solubility of DPPC-TC-ONOO− due to the relatively hydrophobic butanone-coumarin motif. LNPs were obtained via sonication from 1,2-di-O-octadecenyl-3-trimethylammonium propane (DOTMA), 1,2-dioleoyl-sn-glycero-3-phosphoethanolamine (DOPE), and DPPC-TC-ONOO− (47.5:47.5:5.0 molar ratio), which were hydrated with a 300 mM sucrose solution. DOTMA and DOPE were chosen as the carrier lipids due to their cationic/zwitterionic natures, which has been postulated to enhance uptake through the cell membrane. The impact of different LNP compositions and incubation times on the cellular incorporation of DPPC-TC-ONOO^− was assessed. […] Specifically, LNPs containing greater than 10 mol % DPPC-TC-ONOO− were considerably more heterogenous in size (up to […] observed, in contrast to ˜100 nm) and nonuniform in vesicle lamellarity. Those with less than 4 mol % DPPC-TC-ONOO− led to insufficient fluorescence signal. To balance these counteracting factors, 5 mol % DPPC-TC-ONOO− was used, with 47.5 mol % DOTMA and DOPE, each. In these initial assays, cells were incubated with LNPs for up to 15 hours to complete the uptake and intracellular localization of DPPC-TC-ONOO−. Shorter incubation times (3-to-5 hours) led to its uptake but not subcellular localization. […] However, high serum concentration in DMEM caused interference between LNPs and serum-protein, resulting in aggregate formation as observed by microscopy. To overcome this obstacle, LNPs (50 μM) were used in a mixture of 2/3 volumetric ratio of sucrose solution and Opti-MEM™, a reduced serum medium known to increase the efficiency of lipofection. […] For a physiologically relevant stress model, the standard stimulation condition involving IFN-γ/LPS/PMA was employed. Treatment of cells with IFN-γ/LPS leads to the endogenous production of nitric oxide and PMA provokes increased levels of superoxide. These two reactive species combine to form peroxynitrite, as described elsewhere herein. […] The intracellular redox selectivity of DPPC-TC-ONOO^− was also assessed using N-(3-(aminomethyl)benzyl)-acetamidine, known as 1400 W, which inhibits the production of NO· by irreversibly binding to iNOS. […] To determine whether DPPC-TC-ONOO^− localizes and functions at a specific subcellular compartment in HeLa, a comprehensive colocalization study was performed with dyes specific for lipid-rich and membrane-enclosed organelles, including the ER, mitochondrion, Golgi apparatus, and lysosome (FIGS. 9D-9E). In addition, actin stain was used to gain a visual insight into the cytoskeletal structure of the whole cell. […]

[4] = Fluorescence activation and LoD of TEG-TC-H2S with H2S in Tris buffer
Procedure: FIGS. 13A-13D: specificity (FIGS. 13A-13B) and limit of detection (LoD) (FIGS. 13C-13D) of TEG-TC-H2S and TEG-TF-H2O2. LoD measurements for the probes TEG-TC-H2S (390/475 nm) and TEG-TF-H2O2 (485/525 nm) were performed in Tris buffer (50 mM, pH 7.5). Error bars represent the standard deviation; n=3. Single-tailed Student's t test: *, P<0.05; **, P<0.01; ***, P<0.001; ****, P<0.0001.
(§1) The redox-specificities of the non-amphiphilic probes, TEG-TC-H2S or TEG-TF-H2O2, were assessed by subjecting them to various RSS or ROS (FIGS. 13A-13B). Change in fluorescence intensity following excitation of each sample containing the respective probe was measured over 120 minutes of incubation and presented based on the signal-to-background ratio F/F0, where F and F0 are defined as the fluorescence with and without the redox species. The F/F0 of the untreated samples were set to 1 for comparisons. […] Samples containing TEG-TF-H2O2 and treated with 100 μM H2O2 presented a steady fluorescence enhancement within 2 hours, resulting in 4.4-fold higher fluorescence than those of the untreated samples (FIG. 13B).
(§2) The specificity of TEG-TC-H2S toward H2S was evaluated by comparing its reactivity against different RSS, cysteine (Cys), glutathione (GSH), sulfite (SO3^2−), and thiosulfate (S2O3^2−). At 1 mM initial concentration and a total incubation time of 2 hours, these sulfur species induced an increase in coumarin fluorescence by less than 25% compared to the untreated sample (FIG. 13A). […] The specificity of TEG-TF-H2O2 toward H2O2 was also assessed, by incubating the samples containing TEG-TF-H2O2 with 100 μM either hydroxyl radical (·OH), nitric oxide (NO), or superoxide radical (O2·^−) for 2 hours. Among these three reactive oxygen species, ·OH induced the highest fluorescence increase (2.2-fold), which was lower than that for H2O2 (4.4-fold). The relatively low yet observable reactivity of ·OH may have been due, in large part, to the residual unreacted H2O2 used for generating ·OH. […]

[5] = Specificity of TEG-TC-H2S against other RSS
Procedure: as §1
as §2, with “hours.” for “hours. Among these three reactive oxygen species, ·OH induced the highest fluorescence increase (2.2-fold), which was lower than that for H2O2 (4.4-fold). The relatively low yet observable reactivity of ·OH may have been due, in large part, to the residual unreacted H2O2 used for generating ·OH.”

[6] = Table 3, brightness compared to that of DPPC-TC-H2S
[7] = Table 3, brightness compared to that of DPPC-TF-H2O2

Molecule	Emmax [1]	Exmax [1]	Ext. Coeff. [1]	enhanced brightness, uncaging product vs caged probe [1]	Relative Brightness ([1]; Table 2, DPPC-TC-ONOO^− = 1.0)	Relative Brightness [1, 6]	Brightness [1]	Quantum Yield (relative fluorescence quantum yield ΦFrel) ([1]; standard coumarin 343)	pIC50 [2]	fluorescence at 405/475 nm [3]	Relative Brightness [1, 7]	Quantum Yield (relative fluorescence quantum yield ΦFrel) ([1]; standard fluorescein)	fluorescence compared to the sample untreated ([4]; 1 mM H2S, 2 hours of incubation, Tris pH 7.5)	increase in fluorescence intensity ([4]; H2S 1 mM, 2 hours)	LoD ([4]; minimum H2S concentration at which F is statistically higher than F0, 390/475 nm, Tris 50 mM pH 7.5)	fluorescence activation in the presence of H2S compared to the other RSS [5]	increase in coumarin fluorescence compared to the untreated sample ([5]; Cys, GSH, SO3^2−, S2O3^2− at 1 mM, 2 hours)
CCCCCCCCCCCCCCCC(=O)OCC(COP(=O)([O-])OCC[N+](C)(C)Cc1cn(-c2cc3ccc(O)cc3oc2=O)nn1)OC(=O)CCCCCCCCCCCCCCC (racemic) [DPPC-TC]	472.0 nm	398.0 nm	13749 M⁻¹ cm⁻¹	120 fold	35.1	122.2	8799	0.64	≤ 4.30	strong coumarin fluorescence	–	–	–	–	–	–	–
CCCCCCCCCCCCCCCC(=O)OCC(COP(=O)([O-])OCC[N+](C)(C)Cc1cn(-c2ccc3c(c2)C(=O)OC32c3ccc(O)cc3Oc3cc(O)ccc32)nn1)OC(=O)CCCCCCCCCCCCCCC (racemic) [DPPC-TF]	523.6 nm	498.1 nm	28990 M⁻¹ cm⁻¹	–	–	–	18264	–	–	–	85.3	0.63	–	–	–	–	–
[N-]=[N+]=Nc1ccc(COc2ccc3cc(-n4cc(COCCOCCOCCO)nn4)c(=O)oc3c2)cc1 [TEG-TC-H2S]	475.5 nm	392.3 nm	5347 M⁻¹ cm⁻¹	–	–	5.2	374	0.07	–	–	–	–	2.2 fold	120%	100 µM	≥ 5 fold	less than 25%
O=C1OC2(c3ccc(O)cc3Oc3cc(O)ccc32)c2ccc(-n3cc(COCCOCCOCCO)nn3)cc21 [TEG-TF]	522.6 nm	494.3 nm	35982 M⁻¹ cm⁻¹	–	–	–	26267	–	–	–	122.7	0.73	–	–	–	–	–
oxa-spiro[4,5] decenone [Compound 6]	–	–	–	–	–	–	–	–	≤ 4.15	–	–	–	–	–	–	–	–

From patent US20240385182A1, “MASKED FLUOROGENIC LIPID COMPOUNDS, LIPID PARTICLES COMPRISING THE SAME, AND METHODS OF USE THEREOF” (Rutgers, The State University of New Jersey, priority 2023, published 2024)
